# Data as given in ChEMBL document CHEMBL1147123, “Lipoxygenase inhibitory constituents of the fruits of noni (Morinda citrifolia) collected in Tahiti” (J Nat Prod, 2007).
# What was measured:
# [1] = molecular target: T1, Prostaglandin G/H synthase 2 (Homo sapiens, UniProt P35354); experiment: Inhibition of human recombinant COX2 expressed in insect Sf21 cells by EIA assay
# T1 sequence (P35354 whole entry): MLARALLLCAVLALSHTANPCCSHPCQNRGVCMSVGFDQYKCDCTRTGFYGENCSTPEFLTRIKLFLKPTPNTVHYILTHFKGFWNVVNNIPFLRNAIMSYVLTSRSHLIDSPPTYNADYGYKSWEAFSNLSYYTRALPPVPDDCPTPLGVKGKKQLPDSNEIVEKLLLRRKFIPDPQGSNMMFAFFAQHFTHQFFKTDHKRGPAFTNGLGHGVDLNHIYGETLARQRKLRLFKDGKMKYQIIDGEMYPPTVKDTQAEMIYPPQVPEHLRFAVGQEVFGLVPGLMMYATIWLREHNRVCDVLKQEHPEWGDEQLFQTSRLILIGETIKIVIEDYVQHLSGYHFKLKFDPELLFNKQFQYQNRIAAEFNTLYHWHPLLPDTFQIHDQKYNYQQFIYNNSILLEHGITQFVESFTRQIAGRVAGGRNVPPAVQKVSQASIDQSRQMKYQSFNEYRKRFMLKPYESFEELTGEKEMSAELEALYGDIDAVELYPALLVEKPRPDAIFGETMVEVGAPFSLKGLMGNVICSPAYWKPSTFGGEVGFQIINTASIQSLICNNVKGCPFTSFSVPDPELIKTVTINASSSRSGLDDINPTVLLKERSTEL
# [2] = molecular target: T2, Polyunsaturated fatty acid 5-lipoxygenase (Homo sapiens, UniProt P09917); experiment: Inhibition of 5LOX in human PBMC by EIA assay
# T2 sequence (P09917 whole entry): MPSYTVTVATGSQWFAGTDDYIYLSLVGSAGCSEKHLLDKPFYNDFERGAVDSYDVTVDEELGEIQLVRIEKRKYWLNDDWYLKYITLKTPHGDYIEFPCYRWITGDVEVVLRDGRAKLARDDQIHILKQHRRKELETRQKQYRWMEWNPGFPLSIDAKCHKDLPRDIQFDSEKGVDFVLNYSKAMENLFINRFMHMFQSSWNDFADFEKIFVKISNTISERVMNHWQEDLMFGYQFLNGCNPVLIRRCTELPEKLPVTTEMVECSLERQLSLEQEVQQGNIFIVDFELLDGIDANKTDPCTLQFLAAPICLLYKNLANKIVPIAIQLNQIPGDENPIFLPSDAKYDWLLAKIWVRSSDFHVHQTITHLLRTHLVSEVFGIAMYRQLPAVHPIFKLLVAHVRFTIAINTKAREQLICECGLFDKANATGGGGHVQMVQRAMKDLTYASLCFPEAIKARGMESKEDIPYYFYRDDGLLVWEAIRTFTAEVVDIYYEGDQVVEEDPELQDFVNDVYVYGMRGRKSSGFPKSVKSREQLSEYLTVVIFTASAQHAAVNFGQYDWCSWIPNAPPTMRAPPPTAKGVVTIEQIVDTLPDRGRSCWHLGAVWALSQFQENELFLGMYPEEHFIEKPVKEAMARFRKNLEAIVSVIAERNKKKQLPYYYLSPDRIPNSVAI
# [3] = molecular target: T3, Polyunsaturated fatty acid lipoxygenase ALOX15 (Oryctolagus cuniculus, UniProt P12530); experiment: Inhibition of 15LOX in rabbit reticulocytes by spectrophotometric assay
# T3 sequence (P12530 whole entry): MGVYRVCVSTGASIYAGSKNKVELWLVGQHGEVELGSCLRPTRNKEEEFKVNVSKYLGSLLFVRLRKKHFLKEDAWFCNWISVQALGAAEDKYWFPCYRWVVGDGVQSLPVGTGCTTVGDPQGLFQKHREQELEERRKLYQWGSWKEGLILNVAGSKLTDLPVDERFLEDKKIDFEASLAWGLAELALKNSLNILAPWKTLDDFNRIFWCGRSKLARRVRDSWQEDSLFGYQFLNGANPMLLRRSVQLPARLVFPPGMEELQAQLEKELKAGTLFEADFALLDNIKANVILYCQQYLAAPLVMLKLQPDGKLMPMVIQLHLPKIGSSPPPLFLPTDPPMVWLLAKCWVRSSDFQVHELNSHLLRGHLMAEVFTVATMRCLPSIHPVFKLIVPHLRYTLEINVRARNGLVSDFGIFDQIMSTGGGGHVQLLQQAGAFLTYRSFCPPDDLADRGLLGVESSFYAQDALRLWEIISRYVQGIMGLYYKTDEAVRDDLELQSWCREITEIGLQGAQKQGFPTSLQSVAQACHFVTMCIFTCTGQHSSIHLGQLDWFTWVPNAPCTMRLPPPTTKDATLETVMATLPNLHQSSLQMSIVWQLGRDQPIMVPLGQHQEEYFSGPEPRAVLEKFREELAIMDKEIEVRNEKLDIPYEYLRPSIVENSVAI
Structure (SMILES),IC50 [1] [µM],IC50 [2] [µM],IC50 [3] [nM]
Oc1ccc([C@@H]2OC[C@@H]3[C@H]2CO[C@H]3c2ccc(O)c(O)c2)cc1O,> 100,5.9,520
OC[C@@H]1[C@@H]([C@H](O)c2ccc(O)c(O)c2)CO[C@@H]1c1ccc(O)c(O)c1,73.9,9.2,760
COc1cc2oc(=O)ccc2cc1O [ISOSCOPOLETIN],> 100,> 100,
O=c1c(O)c(-c2ccc(O)cc2)oc2cc(O)cc(O)c12 [KAEMPFEROL],> 100,,

# Further lines, results first:
IC50 [1] [µM],IC50 [2] [µM],IC50 [3] [nM],Structure (SMILES)
90.2,5.6,520,O=C1O[C@H](c2ccc(O)c(O)c2)[C@H]2CO[C@H](c3ccc(O)c(O)c3)[C@@H]12
,13.8,,COc1cc([C@@H]2OC[C@H]3[C@@H]2CO[C@H]3c2ccc(O)c(OC)c2)ccc1O [(-)-PINORESINOL]
> 100,> 100,,COc1cc2ccc(=O)oc2cc1O [SCOPOLETIN]
